Experimental data published in article PMC7926352, “Synthesis, Characterization and In Vitro Evaluation of Novel 5-Ene-thiazolo[3,2-b][1,2,4]triazole-6(5H)-ones as Possible Anticancer Agents” (Molecules, 2021).
Read-outs that look alike come from different tables or passages of the source.

Key:
[1] = tested on: UACC-257
[2] = tested on: Prostate Cancer cell lines; conditions: for GI50 / CC50: Homo sapiens
[3] = tested on: OVCAR-3
[4] = tested on: RXF 393
[5] = tested on: Melanoma cell lines; conditions: for GI50 / CC50: Homo sapiens
[6] = tested on: CAKI-1
[7] = tested on: ACHN
[8] = tested on: HL-60 (TB)
[9] = tested on: SR
[10] = tested on: EKVX
[11] = tested on: PC-3
[12] = tested on: BT-549
[13] = tested on: SK-MEL-2
[14] = tested on: HCT-15
[15] = tested on: SK-OV-3
[16] = tested on: Ovarian Cancer cell lines; conditions: for GI50 / CC50: Homo sapiens
[17] = tested on: HT29
[18] = tested on: Renal Cancer cell lines; conditions: for GI50 / CC50: Homo sapiens
[19] = tested on: SNB-75
[20] = tested on: TK-10
[21] = tested on: LOX IMVI
[22] = tested on: MOLT-4
[23] = tested on: SF-268
[24] = tested on: HOP-92
[25] = tested on: UACC-62
[26] = tested on: NCI-H226; assay type: cell-based; conditions: NCI-H226, NSCLC
[27] = read-out: GI50, values range inside panel
[28] = read-out: LC50, values range inside panel

Compound `O=C(COc1ccc(Cl)cc1/C=c1\sc2ncnn2c1=O)Nc1ccc(Cl)cc1` [Compound 2h, (Z)-2-(4-Chloro-2-((6-oxothiazolo[3,2-b][1,2,4]triazol-5(6H)-ylidene)methyl)phenoxy)-N-(4-chlorophenyl)acetamide] has a GI50 ([1]; Homo sapiens, UACC-257) of 3.38 µM, a CC50 ([1]; Homo sapiens, UACC-257, read-out: LC50) of 38.9 µM and a TGI ([1]; UACC-257, Melanoma) of 15.13 µM. It also gave a GI50 ([2]; read-out: GI50, panel MG_MID) of 2.67 µM, a GI50 [2, 27] of 1.54 to 3.8 µM and a CC50 ([2]; read-out: LC50, panel MG_MID) of 30.8 µM. For the same compound, the CC50 [2, 28] was 15.8 to 45.7 µM, the “TGI, panel MG_MID” value ([2]; Prostate Cancer subpanel) was 10.34 µM and the “TGI, values range inside panel” value ([2]; Prostate Cancer subpanel) was 4.46 to 16.21 µM. The GI50 ([3]; Homo sapiens, OVCAR-3) was 2.18 µM, the CC50 ([3]; Homo sapiens, OVCAR-3, read-out: LC50) was 19.5 µM and the TGI ([3]; OVCAR-3, Ovarian Cancer) was 5.62 µM. It also gave a GI50 ([4]; Homo sapiens, RXF 393) of 1.9 µM, a CC50 ([4]; Homo sapiens, RXF 393, read-out: LC50) of 36.3 µM and a TGI ([4]; RXF 393, Renal Cancer) of 8.51 µM. For the same compound, the GI50 ([5]; read-out: GI50, panel MG_MID) was 4.79 µM, the GI50 [5, 27] was 2.63 to 8.31 µM and the CC50 ([5]; read-out: LC50, panel MG_MID) was 41.2 µM. The CC50 [5, 28] was 33.1 to 51.3 µM, the “TGI, panel MG_MID” value ([5]; Melanoma subpanel) was 16.49 µM and the “TGI, values range inside panel” value ([5]; Melanoma subpanel) was 11.22 to 20.89 µM. The TGI ([6]; CAKI-1, Renal Cancer) was 8.12 µM, the GI50 ([6]; Homo sapiens, CAKI-1) was 2.39 µM and the CC50 ([6]; Homo sapiens, CAKI-1, read-out: LC50) was 28.8 µM. The GI50 ([7]; Homo sapiens) was 12.6 µM, the CC50 ([7]; Homo sapiens, read-out: LC50) was 50.1 µM and the TGI ([7]; Renal Cancer) was 25.11 µM. For the same compound, the TGI ([8]; HL-60 (TB), Leukemia) was 9.54 µM, the GI50 ([8]; Homo sapiens, HL-60) was 2.69 µM and the CC50 ([8]; Homo sapiens, HL-60, read-out: LC50) was 37.1 µM. For the same compound, the GI50 ([9]; Homo sapiens) was 1.38 µM, the CC50 ([9]; Homo sapiens, read-out: LC50) was 17.4 µM and the TGI ([9]; Leukemia) was 4.07 µM. For the same compound, the GI50 ([10]; Homo sapiens) was 2.51 µM, the CC50 ([10]; Homo sapiens, read-out: LC50) was 31.6 µM and the TGI ([10]; NSCLC) was 9.99 µM. It also gave a GI50 ([11]; Homo sapiens, PC-3) of 3.8 µM, a CC50 ([11]; Homo sapiens, PC-3, read-out: LC50) of 45.7 µM and a TGI ([11]; PC-3, Prostate Cancer) of 16.21 µM. It also gave a TGI ([12]; BT-549, Breast Cancer) of 8.51 µM, a GI50 ([12]; Homo sapiens, BT-549) of 2.34 µM and a CC50 ([12]; Homo sapiens, BT-549, read-out: LC50) of 35.5 µM. It also gave a GI50 ([13]; Homo sapiens, SK-MEL-2) of 3.98 µM, a CC50 ([13]; Homo sapiens, SK-MEL-2, read-out: LC50) of 38.9 µM and a TGI ([13]; SK-MEL-2, Melanoma) of 13.80 µM. For the same compound, the TGI ([14]; HCT-15, Colon cancer) was 21.37 µM, the GI50 ([14]; Homo sapiens, HCT-15) was 9.33 µM and the CC50 ([14]; Homo sapiens, HCT-15, read-out: LC50) was 45.7 µM. For the same compound, the GI50 ([15]; Homo sapiens, SK-OV-3) was 15.5 µM, the CC50 ([15]; Homo sapiens, SK-OV-3, read-out: LC50) was 53.7 µM and the TGI ([15]; SK-OV-3, Ovarian Cancer) was 28.84 µM. It also gave a GI50 ([16]; read-out: GI50, panel MG_MID) of 8.05 µM, a GI50 [16, 27] of 2.11 to 15.5 µM and a CC50 ([16]; read-out: LC50, panel MG_MID) of 52.1 µM. The CC50 [16, 28] was 19.5 to 97.7 µM, the “TGI, panel MG_MID” value ([16]; Ovarian Cancer subpanel) was 20.34 µM and the “TGI, values range inside panel” value ([16]; Ovarian Cancer subpanel) was 5.62 to 30.90 µM. The TGI ([17]; HT29, Colon cancer) was 15.13 µM, the GI50 ([17]; Homo sapiens, HT-29) was 4.67 µM and the CC50 ([17]; Homo sapiens, HT-29, read-out: LC50) was 38.9 µM. For the same compound, the GI50 ([18]; read-out: GI50, panel MG_MID) was 5.37 µM, the GI50 [18, 27] was 1.62 to 12.6 µM and the CC50 ([18]; read-out: LC50, panel MG_MID) was 40.5 µM. For the same compound, the CC50 [18, 28] was 28.8 to 50.1 µM, the “TGI, panel MG_MID” value ([18]; Renal Cancer subpanel) was 16.40 µM and the “TGI, values range inside panel” value ([18]; Renal Cancer subpanel) was 8.12 to 25.11 µM. The GI50 ([19]; Homo sapiens, SNB-75) was 3.38 µM, the CC50 ([19]; Homo sapiens, SNB-75, read-out: LC50) was 87.1 µM and the TGI ([19]; SNB-75, CNS Cancer) was 15.48 µM. For the same compound, the GI50 ([20]; Homo sapiens, TK-10) was 7.58 µM, the CC50 ([20]; Homo sapiens, TK-10, read-out: LC50) was 35.5 µM and the TGI ([20]; TK-10, Renal Cancer) was 20.41 µM. For the same compound, the GI50 ([21]; Homo sapiens) was 2.63 µM, the CC50 ([21]; Homo sapiens, read-out: LC50) was 33.1 µM and the TGI ([21]; Melanoma) was 11.22 µM. It also gave a GI50 ([22]; Homo sapiens, MOLT-4) of 1.9 µM, a CC50 ([22]; Homo sapiens, MOLT-4, read-out: LC50) of 22.9 µM and a TGI ([22]; MOLT-4, Leukemia) of 5.01 µM. For the same compound, the GI50 ([23]; Homo sapiens, SF-268) was 2.39 µM, the CC50 ([23]; Homo sapiens, SF-268, read-out: LC50) was 37.1 µM and the TGI ([23]; SF-268, CNS Cancer) was 10.47 µM. It also gave a TGI ([24]; HOP-92, NSCLC) of 11.74 µM, a GI50 ([24]; Homo sapiens, HOP-92) of 2.29 µM and a CC50 ([24]; Homo sapiens, HOP-92, read-out: LC50) of 34.7 µM. It also gave a GI50 ([25]; Homo sapiens, UACC-62) of 2.69 µM, a CC50 ([25]; Homo sapiens, UACC-62, read-out: LC50) of 38 µM and a TGI ([25]; UACC-62, Melanoma) of 14.79 µM. For the same compound, the GI50 ([26]; Homo sapiens) was 3.09 µM, the LC50 (50% lethal concentration) ([26]; Homo sapiens) was 44.7 µM and the TGI [26] was 17.37 µM.
